{"source": "paper PMC4275348", "about": "(Molecular microbiology, 2014)", "key": {"LuxN^H210N": {"target": "T1, LuxN^H210N (Vibrio campbellii, UniProt A7MRY4, H210N)", "T1 sequence (A7MRY4 1-849 H210N)": "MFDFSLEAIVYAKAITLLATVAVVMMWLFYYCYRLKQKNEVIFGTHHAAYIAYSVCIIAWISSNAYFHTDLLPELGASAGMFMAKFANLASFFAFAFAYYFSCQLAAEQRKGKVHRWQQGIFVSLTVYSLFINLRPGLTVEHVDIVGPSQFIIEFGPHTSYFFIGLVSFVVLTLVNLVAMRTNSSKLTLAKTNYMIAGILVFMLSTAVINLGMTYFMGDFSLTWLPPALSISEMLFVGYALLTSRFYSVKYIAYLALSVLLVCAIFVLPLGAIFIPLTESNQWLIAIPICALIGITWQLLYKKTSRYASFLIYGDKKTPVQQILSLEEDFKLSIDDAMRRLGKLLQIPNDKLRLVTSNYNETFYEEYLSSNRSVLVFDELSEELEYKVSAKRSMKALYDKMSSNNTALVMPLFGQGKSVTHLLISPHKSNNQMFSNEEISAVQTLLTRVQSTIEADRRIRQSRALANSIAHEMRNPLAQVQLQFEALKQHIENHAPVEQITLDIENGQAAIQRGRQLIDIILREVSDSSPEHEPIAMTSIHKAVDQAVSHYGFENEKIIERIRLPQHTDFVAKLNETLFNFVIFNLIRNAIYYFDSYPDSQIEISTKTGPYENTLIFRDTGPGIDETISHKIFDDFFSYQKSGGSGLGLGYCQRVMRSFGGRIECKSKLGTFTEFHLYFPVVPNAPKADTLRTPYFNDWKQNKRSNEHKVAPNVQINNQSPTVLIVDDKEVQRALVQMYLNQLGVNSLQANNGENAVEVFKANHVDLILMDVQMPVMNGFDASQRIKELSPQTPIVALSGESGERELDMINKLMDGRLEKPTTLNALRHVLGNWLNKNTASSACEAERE", "test": "Bioluminescence of V. harveyi XK006 carrying luxN H210N", "format": "cell-based, Vibrio harveyi", "conditions": "dose-dependent light production"}, "luxN^S184I/S230P": {"target": "T2, luxN^S184I/S230P (Vibrio campbellii, UniProt A7MRY4, S184I/S230P)", "T2 sequence (A7MRY4 1-849 S184I/S230P)": "T1 sequence (A7MRY4 1-849 H210N) with S184I, N210H, S230P", "test": "Bioluminescence of V. harveyi XK006 carrying luxN S184I/S230P", "format": "cell-based, Vibrio harveyi"}, "luxN^T159I/Y193K": {"target": "T3, luxN^T159I/Y193K (Vibrio campbellii, UniProt A7MRY4, N193K/T159I)", "T3 sequence (A7MRY4 1-849 T159I/N193K)": "T1 sequence (A7MRY4 1-849 H210N) with T159I, N193K, N210H", "test": "Bioluminescence of V. harveyi XK006 carrying luxN T159I/Y193K", "format": "cell-based, Vibrio harveyi"}, "Kin^off LuxN mutants": {"tested_on": "Kin^off LuxN mutants", "test": "Bioluminescence of V. harveyi XK847 harboring Kin^off luxN alleles", "format": "cell-based, Vibrio harveyi"}, "LuxN": {"target": "LuxN (Vibrio campbellii, UniProt A7MRY4)", "conditions": "1 μM AHL; V. harveyi TL25; versus DMSO"}, "WT LuxN": {"target": "WT LuxN (Vibrio campbellii, UniProt A7MRY4)", "conditions": "100 nM AI-1; XK847"}}, "note": "Numbering of substitutions follows the chain as printed."}
{"molecule": "C[C@@H](O)CC(=O)N[C@H]1CCOC1=O", "note": "[3OH-C4 HSL, N-((R)-3-hydroxybutanoyl)-L-homoserine lactone]", "values": [{"measurement": "less sensitivity than for the other two C4 AHLs (3O-C4 HSL, C4 HSL)", "setting": "LuxN^H210N", "result": 10, "unit": "fold"}, {"measurement": "response (dose-dependent light production)", "setting": "luxN^S184I/S230P", "result": "most potent agonist"}, {"measurement": "response (dose-dependent light production)", "setting": "luxN^T159I/Y193K", "result": "most potent agonist"}, {"measurement": "light production / detection", "setting": "Kin^off LuxN mutants", "result": "produced maximal light"}, {"measurement": "increase in light production", "setting": "LuxN", "result": "over 1000 fold"}, {"measurement": "increase in light production", "setting": "WT LuxN", "result": 1000, "unit": "fold"}]}
